Patent US20250152616A1, “COMPOSITIONS FOR AND METHODS OF TREATING, PREVENTING, AND/OR MITIGATING PAIN” (Duke University, priority 2022, published 2025)

Tests used:
dissociated DRG neurons [1] = assay: Fura-2 calcium imaging of dissociated DRG neurons stimulated with capsaicin; assay type: cell-based, mouse
Excerpt: DRG were isolated from mice using a modified version of the previously described protocol (Perner C, et al. (2021) STAR Protoc. 2:100333). Briefly, mice were euthanized and dosed in 70% ethanol to prevent fur contamination. Mice were positioned prone, and an incision was made along the spine from the neck to the base of the tail. Under a dissecting microscope, the surrounding soft tissue of the spinal column was removed from the dorsal side by Friedman-Pearson Rongeurs (Fine Science Tools, Foster City, CA, Cat #16021-14) from the mid thoracic region to the lumbosacral joint. The vertebral bone surrounding the DRG was gently crushed and removed with rongeurs exposing the spinal cord. The DRG were carefully extracted near the foramen between the vertebral levels. L3 and L4 DRG were collected for analyses. Dissected DRG were placed directly into ice-cold DMEM-F12 medium (ThermoFisher, Cat #11320033) for in vitro culture, Trizol (ThermoFisher, Cat #15596018) for PCR analyses, or 4% PFA for histology. For cell culture experiments, collected DRG were digested in digestion solution comprised of collagenase type II (Worthington, Lakewood, NJ, Cat #LS004176) and dispase (1.5 mg/mL each) dissolved in DMEM/F12. DRG were agitated in a digestion solution on an orbital shaker at 60 rpm and 37° C. for 20 minutes and repeated thrice with fresh digestion solution. Next, the digestion solution was replaced with trypsin-EDTA (0.025%) in DMEM/F12 and incubated for an additional 15 min to disrupt the remaining cell-to-cell adhesions. The solution was then replaced with DMEM/F12 and FBS (1:3) to neutralize trypsin. DRG were triturated to create a cell suspension and gently layered onto 15% bovine serum albumin (BSA) solution without mixing and centrifuged for 6 min at 280 g with minimal acceleration and no deceleration to separate non-neuronal cells and debris (Owen D E, et al. (2012) Methods Mol Biol. 846:179-187). […]
Intracellular cytosolic Ca^2+ was evaluated by Fura-2 loaded DRG neurons (Khomula E V, et al. (2019) J Neurosci. 39:7061-7073). […]

dissociated DRG neurons [2] = assay: FluoVolt membrane potential imaging of dissociated DRG neurons; assay type: cell-based, mouse; settings: 1 day NGF followed by adenosine treatment; capsaicin stimulation
Excerpt: DRG were isolated from mice using a modified version of the previously described protocol (Perner C, et al. (2021) STAR Protoc. 2:100333). Briefly, mice were euthanized and dosed in 70% ethanol to prevent fur contamination. Mice were positioned prone, and an incision was made along the spine from the neck to the base of the tail. Under a dissecting microscope, the surrounding soft tissue of the spinal column was removed from the dorsal side by Friedman-Pearson Rongeurs (Fine Science Tools, Foster City, CA, Cat #16021-14) from the mid thoracic region to the lumbosacral joint. The vertebral bone surrounding the DRG was gently crushed and removed with rongeurs exposing the spinal cord. The DRG were carefully extracted near the foramen between the vertebral levels. L3 and L4 DRG were collected for analyses. Dissected DRG were placed directly into ice-cold DMEM-F12 medium (ThermoFisher, Cat #11320033) for in vitro culture, Trizol (ThermoFisher, Cat #15596018) for PCR analyses, or 4% PFA for histology. For cell culture experiments, collected DRG were digested in digestion solution comprised of collagenase type II (Worthington, Lakewood, NJ, Cat #LS004176) and dispase (1.5 mg/mL each) dissolved in DMEM/F12. […]
DRG neuron potential changes were evaluated with FluoVolt, a voltage sensitive indicator dye (ThermoFisher, Cat #F10488). […]

[3] = Measurement of adenosine in plasma of fractured mice; assay type: in vivo, mouse; settings: 3 days after implantation of adenosine-loaded biomaterial following tibial fracture
Experimental: Peripheral blood was collected and immediately incubated in ice cold stop solution at a 1:2 ratio (blood to stop solution) to inhibit degradation of adenosine (Feldman M D, et al. (1992) Clin Chem. 38:256-262). Stop solution comprised of 0.2 mM dipyridamole (Tocris, Minneapolis, MN), 5 μM erythro-9 (2-hydroxy-3-nonyl)-adenine (EHNA; Tocris), 62 μM Adenosine 5′-(α,β-methylene) diphosphate sodium salt (APCP), 5 mM EDTA, and 25 IU/mL heparin (Tocris) in PBS. The blood was centrifuged at 2000 rcf for 10 min at 4° C. to separate cells from plasma. Adenosine assay kit (Cell Biolabs, San Diego, CA, Cat #MET-5090) was used to measure adenosine levels from plasma according to manufacturer's protocol. Briefly, a reaction mixture comprised of fluorometric Probe, HRP, adenosine deaminase, purine nucleoside phosphorylase, xanthine oxidase, assay buffer and a control mix comprised of fluorometric Probe, HRP, purine nucleoside phosphorylase, xanthine oxidase, assay buffer were made and mixed with 50 μL of plasma for 15 min. at room temp. The relative fluorescence unit (RFU) was measured using a microplate reader with excitation at 570 nm and emission at 590 nm. Adenosine concentration was determined using a standard curve of known concentrations and subtracted for the background by using the values in control mix.

## Nc1ncnc2c1ncn2[C@@H]1O[C@H](CO)[C@@H](O)[C@H]1O [adenosine]
Dissociated DRG neurons [1]; NGF 200 ng/mL 1 day, adenosine 5 μM for 5 min, capsaicin 100 nM
  NGF-increased functional responses to capsaicin (Fura-2 average and peak intensity): attenuated
Dissociated DRG neurons [1]; initial screening, two different concentrations of adenosine, capsaicin stimulation
  functional activity of DRG neurons (normalized peak intensity, calcium imaging): decreased
Dissociated DRG neurons [2]
  NGF-induced increase in membrane potential (FluoVolt): attenuated
[3]
  adenosine level in peripheral blood vs control biomaterials: No significant increase
